Source: patent US20250290117A1, “MOLECULAR PHENOTYPIC ANTIMICROBIAL SUSCEPTIBILITY TESTING” (priority 2024, published 2025)

Tested on: pathogen of the specimen
Experiment: Molecular phenotypic antimicrobial susceptibility test with direct PCR at various incubation timepoints (Table 7)
Assay type: cell-based
Protocol: Detection of Molecular Phenotypic Antimicrobial Susceptibility. Disclosed herein are the methods for the detection of phenotypic antimicrobial susceptibility via molecular methods. The present invention describes how a specimen 100 with a known microbial load is incubated and then exposed to a panel of antimicrobial agents to determine sensitivity (prevention of growth) or resistance (allowance of growth) to the specific antimicrobial agents tested utilizing molecular methods. Sample Collection. Specimens 100 are collected from patients using sterile collection processes that are employed in routine clinical care. Specimens are transported to the testing facility in boric acid preservative. […] The process for pathogen isolation includes steps of harvesting the pathogen (e.g., via centrifugation), isolating pathogen DNA via a DNA isolation and/or purification kit, and performing PCR on the pathogen DNA via PCR components (e.g., primers, enzymes, buffers) as would be known to the skilled artisan. […] This aliquot is used for antimicrobial susceptibility testing if indicated based on the pathogen detection results. […] Specimens 100 with lower pathogen loads could also be utilized in the antibiotic susceptibility phase of testing with or without a longer incubation period. […] Antimicrobial solutions are prepared at known concentrations. The specific antimicrobials and their concentrations are selected based on the pathogen of interest and the described antimicrobial resistance breakpoints for that specimen pathogen and antimicrobial combination. These antimicrobials have been selected based on those commonly utilized by healthcare providers in routine clinical care for the specific type of suspected infection. The number and types of antimicrobials utilized can be customized based on the infection source, pathogen detected, patient-specific factors such as allergies or other health conditions (e.g., chronic kidney disease or concurrent medication use), or healthcare provider preferences such as antimicrobial availability or cost. The antimicrobial solutions are prepared in liquid culture media (such as Muller Hinton Broth) to achieve the desired antimicrobial concentration and are then stored at −80° C. until use. For a given specimen, each antimicrobial is tested at a single or multiple antimicrobial concentration(s) which is its established breakpoints for sensitivity. The antimicrobial solutions are prepared and plated out for each specific pathogen. […] This allows for evaluation of pathogen load when no antimicrobial is present. Specimen Exposure to Antimicrobial Agents. The 1 mL aliquot of the specimen 100 previously mixed with culture media and incubated is obtained. Using optical density measurements as a guide, the specimen 100 is diluted to 0.5 McFarland. […] Antimicrobial exposure plates are typically placed into an incubator for 12-16 hours. […] Nucleic Acid Amplification of Antimicrobial Agent Exposed Pathogens. The antimicrobial exposure plate is removed after the period of incubation. The specimen then undergoes a purification or lysis step. For example, the specimen may undergo a purification step (e.g., magnetic bead-based or other separation protocol to isolate genetic material). In another example, the specimen may undergo a cell lysis step. For example, buffer (e.g., lysis buffer) may be added and incubated in the thermal cycler for preparation for direct PCR. Next, the specimen may undergo a polymerase chain reaction (PCR) testing protocol, whereby a semi-quantitative PCR method is utilized. This may be completed either with or without a specific extraction protocol step. The pathogens can be individually targeted and detected, or a universal genetic sequence can be utilized to detect the antimicrobial susceptibility of the specimen as a whole. The control wells are utilized as a threshold for determining antimicrobial sensitivity or resistance. […] Antimicrobial Susceptibility Result Interpretation.

[1] = E. coli isolate 1189, antibiotic incubation time 4 hours
[2] = E. coli isolate 1189, antibiotic incubation time 4 hours, control average Ct […]
[3] = E. coli isolate 1189, antibiotic incubation time 6 hours
[4] = E. coli isolate 1189, antibiotic incubation time 6 hours, control average Ct 16.992
[5] = E. coli isolate 1189, antibiotic incubation time 8 hours
[6] = E. coli isolate 1189, antibiotic incubation time 8 hours, control average Ct […]
[7] = E. coli isolate 1189, antibiotic incubation time 10 hours
[8] = E. coli isolate 1189, antibiotic incubation time 10 hours, control average Ct 15.995
[9] = E. coli isolate 1189, antibiotic incubation time 12 hours
[10] = E. coli isolate 1189, antibiotic incubation time 12 hours, control average Ct 15.495
[11] = E. coli isolate 1189, antibiotic incubation time 14 hours
[12] = E. coli isolate 1189, antibiotic incubation time 14 hours, control average Ct 15.826
[13] = E. coli isolate 1189, antibiotic incubation time 16 hours
[14] = E. coli isolate 1189, antibiotic incubation time 16 hours, control average Ct 14.880

Compound | Molecular Antimicrobial Susceptibility Result [1] | Ct at Sensitive Breakpoint [2] | Molecular Antimicrobial Susceptibility Result [3] | Ct at Sensitive Breakpoint [4] | Molecular Antimicrobial Susceptibility Result [5] | Ct at Sensitive Breakpoint [6] | Molecular Antimicrobial Susceptibility Result [7] | Ct at Sensitive Breakpoint [8] | Molecular Antimicrobial Susceptibility Result [9] | Ct at Sensitive Breakpoint [10] | Molecular Antimicrobial Susceptibility Result [11] | Ct at Sensitive Breakpoint [12] | Molecular Antimicrobial Susceptibility Result [13] | Ct at Sensitive Breakpoint [14]
Cc1nnc(SCC2=C(C(=O)O)N3C(=O)[C@@H](NC(=O)Cn4cnnn4)[C@H]3SC2)s1 [Cefazolin] | Resistant | 16.209 | Resistant | 16.328 | Resistant | 17.305 | Resistant | 15.756 | Resistant | 15.126 | Resistant | 17.599 | Resistant | 15.199
CC1(C)S[C@@H]2[C@H](NC(=O)[C@H](N)c3ccccc3)C(=O)N2[C@H]1C(=O)O [Ampicillin] | Resistant |  | Resistant | 15.362 | Resistant |  | Resistant |  | Resistant | 15.183 | Resistant | 15.465 | Resistant | 15.036
Gentamicin | Sensitive (Antimicrobial wells with pathogen load detected below the control wells (typically >2 cycle thresholds later) may be reported as Sensitive) | 24.224 | Sensitive (Antimicrobial wells with pathogen load detected below the control wells (typically >2 cycle thresholds later) may be reported as Sensitive) | 25.270 | Sensitive (Antimicrobial wells with pathogen load detected below the control wells (typically >2 cycle thresholds later) may be reported as Sensitive) | 25.454 | Sensitive (Antimicrobial wells with pathogen load detected below the control wells (typically >2 cycle thresholds later) may be reported as Sensitive) | 25.318 | Sensitive (Antimicrobial wells with pathogen load detected below the control wells (typically >2 cycle thresholds later) may be reported as Sensitive) | 25.018 | Sensitive (Antimicrobial wells with pathogen load detected below the control wells (typically >2 cycle thresholds later) may be reported as Sensitive) | 24.069 | Sensitive (Antimicrobial wells with pathogen load detected below the control wells (typically >2 cycle thresholds later) may be reported as Sensitive) | 24.816
CO/N=C(\C(=O)N[C@@H]1C(=O)N2C(C(=O)[O-])=C(C[N+]3(C)CCCC3)CS[C@H]12)c1csc(N)n1 [Cefepime] | Sensitive (Antimicrobial wells with pathogen load detected below the control wells (typically >2 cycle thresholds later) may be reported as Sensitive) | 20.399 | Sensitive (Antimicrobial wells with pathogen load detected below the control wells (typically >2 cycle thresholds later) may be reported as Sensitive) | 20.178 | Sensitive (Antimicrobial wells with pathogen load detected below the control wells (typically >2 cycle thresholds later) may be reported as Sensitive) | 21.204 | Sensitive (Antimicrobial wells with pathogen load detected below the control wells (typically >2 cycle thresholds later) may be reported as Sensitive) | 21.613 | Sensitive (Antimicrobial wells with pathogen load detected below the control wells (typically >2 cycle thresholds later) may be reported as Sensitive) | 22.447 | Sensitive (Antimicrobial wells with pathogen load detected below the control wells (typically >2 cycle thresholds later) may be reported as Sensitive) | 22.420 | Sensitive (Antimicrobial wells with pathogen load detected below the control wells (typically >2 cycle thresholds later) may be reported as Sensitive) | 23.502
CO/N=C(\C(=O)N[C@@H]1C(=O)N2C(C(=O)O)=C(CSc3nc(=O)c(=O)[nH]n3C)CS[C@H]12)c1csc(N)n1 [Ceftriaxone] | Resistant | 16.185 | Resistant | 16.838 | Resistant | 17.431 | Resistant | 16.347 | Resistant | 16.258 | Resistant | 14.724 | Resistant | 15.840
C[C@@H](O)[C@H]1C(=O)N2C(C(=O)O)=C(S[C@@H]3CN[C@H](C(=O)N(C)C)C3)[C@H](C)[C@H]12 [Meropenem] | Sensitive (Antimicrobial wells with pathogen load detected below the control wells (typically >2 cycle thresholds later) may be reported as Sensitive) | 22.751 | Sensitive (Antimicrobial wells with pathogen load detected below the control wells (typically >2 cycle thresholds later) may be reported as Sensitive) | 22.884 | Sensitive (Antimicrobial wells with pathogen load detected below the control wells (typically >2 cycle thresholds later) may be reported as Sensitive) | 23.187 | Sensitive (Antimicrobial wells with pathogen load detected below the control wells (typically >2 cycle thresholds later) may be reported as Sensitive) | 23.901 | Sensitive (Antimicrobial wells with pathogen load detected below the control wells (typically >2 cycle thresholds later) may be reported as Sensitive) | 26.014 | Sensitive (Antimicrobial wells with pathogen load detected below the control wells (typically >2 cycle thresholds later) may be reported as Sensitive) | 26.211 | Sensitive (Antimicrobial wells with pathogen load detected below the control wells (typically >2 cycle thresholds later) may be reported as Sensitive) | 27.457
CO[C@@]1(NC(=O)Cc2cccs2)C(=O)N2C(C(=O)O)=C(COC(N)=O)CS[C@@H]21 [Cefoxitin] | Resistant | 17.798 | Resistant | 15.865 | Resistant | 16.837 | Resistant | 14.899 | Resistant | 15.750 | Resistant | 15.333 | Resistant | 13.704
